Source: PMC11547093, “Novel Phenoxyalkanoic Acid Derivatives as Free Fatty Acid Receptor 4 Agonists for Treating Type 2 Diabetes Mellitus” (International Journal of Molecular Sciences, 2024)

Key:
human FFAR4 = target: T1, human FFAR4 (Homo sapiens, UniProt Q5NUL3); assay: cell-based
T1 sequence (Q5NUL3 1-361): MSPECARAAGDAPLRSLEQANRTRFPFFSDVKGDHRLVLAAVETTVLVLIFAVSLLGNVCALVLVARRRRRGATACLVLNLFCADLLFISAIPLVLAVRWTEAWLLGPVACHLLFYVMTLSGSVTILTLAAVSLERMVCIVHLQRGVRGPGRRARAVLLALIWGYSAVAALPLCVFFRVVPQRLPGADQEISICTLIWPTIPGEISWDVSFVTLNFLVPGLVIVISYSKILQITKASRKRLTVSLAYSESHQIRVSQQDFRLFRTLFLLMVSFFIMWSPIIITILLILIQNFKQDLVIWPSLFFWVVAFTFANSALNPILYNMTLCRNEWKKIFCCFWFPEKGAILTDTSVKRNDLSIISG

normal ICR mice = assay: oral glucose tolerance test in normal ICR mice; details: 20 mg/kg by gavage 30 min before glucose 2 g/kg, AUC 0-120 min
Method: Compounds (20 mg/kg) or the vehicle was administered by gavage 30 min before glucose administration (2 g/kg). […] The test compounds were dissolved in 0.5% methyl cellulose (MC) and vortexed before the study initiation. […] The exact dose volume was calculated separately for each animal. […] Blood glucose levels were measured using blood glucose test strips (Sannuo GA-3 type; Changsha, China).

DIO mice = assay: anti-hyperglycemic effects (OGTT, insulin) in diet-induced obese (DIO) mice; assay type: in vivo, C57BL/6 mice; details: for reduction of blood glucose AUC versus vehicle-treated group: AUC -30 to 120 min
Method: During the experimental period, plasma insulin levels were measured 30 min after glucose administration using an insulin ELISA Kit.
Plasma insulin levels were measured using a mouse insulin RIA kit 30 min after oral glucose loading (Beijing North Institute of Biological Technology, Beijing, China).

human FFAR1 = target: T2, human FFAR1 (Homo sapiens, UniProt O14842); assay: calcium influx assay, hFFAR1 (hGPR40) agonistic activity in transfected CHO cells; assay type: cell-based
T2 construct: expressed in transfected cells; host or cells: CHO cells

[1] = pharmacokinetic study in ICR mice; assay type: in vivo; details: oral 10 mg/kg
Method: The AUC was calculated using the trapezoidal method.
Plasma was collected and precipitated using two volumes of acetonitrile containing an internal standard. This step was followed by centrifugation at 15.680 g for 10 min after vortexing for 5 min. The supernatant was diluted with acetonitrile, and 10 µL of the supernatant was analyzed by Waters LC-PDA-MS/MS to determine plasma drug levels. Pharmacokinetic parameters were determined using mean data from four mice at each time point. Statistical analysis of the data was performed using the DAS 2.1.1 statistical software program (BioVoice, Shanghai, China).

T2 sequence (O14842 whole entry): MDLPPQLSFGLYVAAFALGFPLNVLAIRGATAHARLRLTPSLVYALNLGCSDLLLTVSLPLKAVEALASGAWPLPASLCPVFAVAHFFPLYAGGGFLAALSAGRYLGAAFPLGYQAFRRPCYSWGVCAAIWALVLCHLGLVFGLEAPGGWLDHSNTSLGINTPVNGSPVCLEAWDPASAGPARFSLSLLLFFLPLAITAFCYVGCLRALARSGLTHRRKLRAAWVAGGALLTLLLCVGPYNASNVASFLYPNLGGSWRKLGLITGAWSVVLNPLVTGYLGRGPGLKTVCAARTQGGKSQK

`Cc1ccc(-c2ccc(F)cc2NC(=O)c2ccc(OCC(=O)O)cc2)cc1` [Compound 1f, 2-(4-((4-fluoro-4′-methyl-[1,1′-biphenyl]-2-yl)carbamoyl)phenoxy)acetic acid] showed an EC50 (human FFAR4) of 136 nM.
Compound `Cc1ccc(-c2ccc(F)cc2NC(=O)c2ccc(OCCCC(=O)O)cc2)cc1` [Compound 2f, 4-(4-((4-fluoro-4′-methyl-[1,1′-biphenyl]-2-yl)carbamoyl)phenoxy)butanoic acid] has an EC50 (human FFAR4) of 189 nM.
For `Cc1ccc(-c2ccc(F)cc2NC(=O)c2ccc(OCCCCC(=O)O)cc2)cc1` [Compound 3f, 5-(4-((4-fluoro-4′-methyl-[1,1′-biphenyl]-2-yl)carbamoyl)phenoxy)pentanoic acid], the EC50 (human FFAR4) was 236 nM.
Compound `Cc1ccc(-c2ccc(F)cc2NC(=O)c2ccc(OCC(=O)O)c(C)c2)cc1` [Compound 4f, 2-(4-((4-fluoro-4′-methyl-[1,1′-biphenyl]-2-yl)carbamoyl)-2-methylphenoxy)acetic acid] has an EC50 (human FFAR4) of 145 nM.
With `Cc1ccc(-c2ccc(F)cc2NC(=O)c2ccc(OCCCC(=O)O)c(C)c2)cc1` [Compound 5f, 4-(4-((4-fluoro-4′-methyl-[1,1′-biphenyl]-2-yl)carbamoyl)-2-methylphenoxy)butanoic acid] the EC50 (human FFAR4) was 113 nM and the “reduction of blood glucose AUC versus vehicle-treated group” value (“reduction” for short) (normal ICR mice) was 16.7%.
For `Cc1ccc(-c2ccc(F)cc2NC(=O)c2ccc(OCCCCC(=O)O)c(C)c2)cc1` [Compound 6f, 5-(4-((4-fluoro-4′-methyl-[1,1′-biphenyl]-2-yl)carbamoyl)-2-methylphenoxy)pentanoic acid], the EC50 (human FFAR4) was 218 nM.
In the case of `Cc1ccc(-c2ccc(F)cc2NC(=O)c2ccc(OCC(=O)O)cc2C)cc1` [Compound 7f, 2-(4-((4-fluoro-4′-methyl-[1,1′-biphenyl]-2-yl)carbamoyl)-3-methylphenoxy)acetic acid], the EC50 (human FFAR4) is reported as 189 nM.
With `Cc1ccc(-c2ccc(F)cc2NC(=O)c2ccc(OCCCC(=O)O)cc2C)cc1` [Compound 8f, 4-(4-((4-fluoro-4′-methyl-[1,1′-biphenyl]-2-yl)carbamoyl)-3-methylphenoxy)butanoic acid] the EC50 (human FFAR4) was 246 nM.
Work on `Cc1ccc(-c2ccc(F)cc2NC(=O)c2ccc(OCCCCC(=O)O)cc2C)cc1` [Compound 9f, 5-(4-((4-fluoro-4′-methyl-[1,1′-biphenyl]-2-yl)carbamoyl)-3-methylphenoxy)pentanoic acid] yielded an EC50 (human FFAR4) of 279 nM.
For `Cc1ccc(-c2ccc(F)cc2NC(=O)c2ccc(OCC(=O)O)c(F)c2)cc1` [Compound 10f, 2-(2-fluoro-4-((4-fluoro-4′-methyl-[1,1′-biphenyl]-2-yl)carbamoyl)phenoxy)acetic acid], the EC50 (human FFAR4) was 78.6 nM, the “reduction” value (DIO mice; 30 mg/kg oral 30 min before glucose 2 g/kg) was 20.1% and the “reduction” value (DIO mice; 100 mg/kg oral 30 min before glucose 2 g/kg) was 32.4%. The hypoglycemic effect (DIO mice; doses exceeding 10 mg/kg oral) was “significant hypoglycemic activity”, the “plasma insulin level versus control group” value (DIO mice; doses greater than 10 mg/kg, 30 min after glucose administration) was “significantly higher” and the “hypoglycemia during the experiment” value (DIO mice; doses up to 100 mg/kg oral) was “no hypoglycemia was observed”. The hypoglycemic effect (DIO mice; lower doses 1 mg/kg and 3 mg/kg oral) was “did not exhibit significant hypoglycemic effects”, the “potency in stimulating FFAR4 over FFAR1 (selectivity)” value (human FFAR1; FFAR4 versus FFAR1) was “approximately 400 fold” and the EC50 (human FFAR1; human FFAR1 transfected CHO cells, calcium influx) was 32900 nM. It also gave a Tmax ([1]; male, mouse, plasma) of 0.5 h, an AUC ([1]; male, mouse, plasma, 0 to 24 h, mean ± SD of four mice) of 9830 ± 2930 ng·h/mL and a Cmax ([1]; male, mouse, plasma, 0.5% methyl cellulose, mean ± SD of four mice) of 3140 ± 1150 ng/mL. For the same compound, the half-life ([1]; male, mouse, plasma, mean ± SD of four mice) was 1.51 ± 0.51 h, the “Cmax relative to TUG-891” value [1] was 2.5 times and the “reduction” value (normal ICR mice) was 30.8%.
In the case of `Cc1ccc(-c2ccc(F)cc2NC(=O)c2ccc(OCCCC(=O)O)c(F)c2)cc1` [Compound 11f, 4-(2-fluoro-4-((4-fluoro-4′-methyl-[1,1′-biphenyl]-2-yl)carbamoyl)phenoxy)butanoic acid], the EC50 (human FFAR4) is reported as 93.2 nM and the “reduction” value (normal ICR mice) is reported as 20.0%.
`Cc1ccc(-c2ccc(F)cc2NC(=O)c2ccc(OCCCCC(=O)O)c(F)c2)cc1` [Compound 12f, 5-(2-fluoro-4-((4-fluoro-4′-methyl-[1,1′-biphenyl]-2-yl)carbamoyl)phenoxy)pentanoic acid] gave an EC50 (human FFAR4) of 127 nM.
